Laboratory results as given in ChEMBL document CHEMBL1201862, “PubChem BioAssay data set” (2004).
Activity calls are given as the source filed them.

Tests used:
Assay type in all cases: functional
[1] = SAR analysis of small molecule activators of Apaf-1 using a LZ-Caspase-9/Caspase-3 Fluorescent Selectivity assay - Set 2.; conditions: read-out: EC50_Mean
[2] = target: T1, Apoptotic protease-activating factor 1 (Homo sapiens, UniProt O14727); test: SAR analysis of small molecule Activators of Apaf-1 in a Fluorescent assay - set 2.; conditions: read-out: EC50_Mean
T1 sequence (O14727 whole entry): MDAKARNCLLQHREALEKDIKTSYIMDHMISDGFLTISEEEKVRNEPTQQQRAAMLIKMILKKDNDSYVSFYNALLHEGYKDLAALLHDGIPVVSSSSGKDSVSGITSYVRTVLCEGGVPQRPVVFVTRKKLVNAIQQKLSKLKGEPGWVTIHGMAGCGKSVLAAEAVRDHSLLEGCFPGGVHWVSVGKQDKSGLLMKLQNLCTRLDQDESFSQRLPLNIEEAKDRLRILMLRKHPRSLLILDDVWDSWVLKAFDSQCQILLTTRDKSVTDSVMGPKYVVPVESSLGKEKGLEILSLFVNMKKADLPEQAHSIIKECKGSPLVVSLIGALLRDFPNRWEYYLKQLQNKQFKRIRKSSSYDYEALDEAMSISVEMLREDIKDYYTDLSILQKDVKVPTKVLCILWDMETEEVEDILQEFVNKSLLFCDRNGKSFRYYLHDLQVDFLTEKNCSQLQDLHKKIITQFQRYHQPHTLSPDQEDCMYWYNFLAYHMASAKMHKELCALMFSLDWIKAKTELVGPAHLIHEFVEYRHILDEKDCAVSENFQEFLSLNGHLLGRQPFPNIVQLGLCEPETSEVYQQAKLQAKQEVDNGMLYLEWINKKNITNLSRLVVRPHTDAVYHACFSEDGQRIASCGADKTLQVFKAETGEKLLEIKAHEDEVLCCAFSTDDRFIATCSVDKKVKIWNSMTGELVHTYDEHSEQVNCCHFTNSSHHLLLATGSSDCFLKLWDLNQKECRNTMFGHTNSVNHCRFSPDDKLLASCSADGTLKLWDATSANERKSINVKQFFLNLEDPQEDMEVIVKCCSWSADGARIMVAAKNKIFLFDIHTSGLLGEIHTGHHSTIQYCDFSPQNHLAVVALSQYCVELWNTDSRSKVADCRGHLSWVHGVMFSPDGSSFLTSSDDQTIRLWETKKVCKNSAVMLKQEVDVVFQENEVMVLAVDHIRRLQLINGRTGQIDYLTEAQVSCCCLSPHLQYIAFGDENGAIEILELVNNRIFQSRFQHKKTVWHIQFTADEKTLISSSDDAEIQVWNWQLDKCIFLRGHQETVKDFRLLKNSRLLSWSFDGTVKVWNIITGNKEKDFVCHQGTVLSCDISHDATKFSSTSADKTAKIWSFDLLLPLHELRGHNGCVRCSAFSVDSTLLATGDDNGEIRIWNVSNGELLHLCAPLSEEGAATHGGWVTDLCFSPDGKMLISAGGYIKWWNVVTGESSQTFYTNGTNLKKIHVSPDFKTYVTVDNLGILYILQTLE

Vero = test: inhibition of WNV-induced cytopathic effect – cell-based, CPE readout (AID 1621); conditions: Chlorocebus sabaeus
[3] = target: T2, High affinity choline transporter 1 (Homo sapiens, UniProt Q9GZV3); test: human choline transporter blockers, potency – cell-based, 5-point CRC, membrane potential dye, dose response (AID 504840)
T2 sequence (Q9GZV3 whole entry): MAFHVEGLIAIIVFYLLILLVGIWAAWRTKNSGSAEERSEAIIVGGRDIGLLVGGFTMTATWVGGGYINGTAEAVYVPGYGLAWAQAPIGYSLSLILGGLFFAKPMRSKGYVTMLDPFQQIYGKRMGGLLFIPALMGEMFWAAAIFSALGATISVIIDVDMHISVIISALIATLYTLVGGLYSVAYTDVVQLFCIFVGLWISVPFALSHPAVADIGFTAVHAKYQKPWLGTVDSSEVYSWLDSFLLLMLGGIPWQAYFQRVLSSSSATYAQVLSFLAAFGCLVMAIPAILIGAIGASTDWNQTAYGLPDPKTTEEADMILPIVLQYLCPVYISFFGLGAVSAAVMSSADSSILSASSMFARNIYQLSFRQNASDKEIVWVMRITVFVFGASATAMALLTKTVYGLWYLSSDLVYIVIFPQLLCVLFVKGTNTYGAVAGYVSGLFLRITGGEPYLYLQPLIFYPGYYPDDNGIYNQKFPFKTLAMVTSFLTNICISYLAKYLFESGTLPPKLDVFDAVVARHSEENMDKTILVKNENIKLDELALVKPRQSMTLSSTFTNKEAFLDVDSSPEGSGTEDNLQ

[4] = target: T2, High affinity choline transporter 1; test: human choline transporter blockers, potency – cell-based, 10-point CRC, membrane potential dye, dose response (AID 588401);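 further: membrane potential dye fluorescence of choline-evoked depolarization via CHT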
[5] = viability loss in HeLa cells – cytotoxicity control for MgcRacGAP inhibitor project, dose response (AID 624300)
[6] = target: T3, Rac GTPase-activating protein 1 (Homo sapiens, UniProt Q9H0H5); test: blockers of MgcRacGAP-driven Rac1 GTP hydrolysis – biochemical, ADP Hunter fluorescence, primary and confirmatory, confirmation (AID 624330)
T3 sequence (Q9H0H5 whole entry): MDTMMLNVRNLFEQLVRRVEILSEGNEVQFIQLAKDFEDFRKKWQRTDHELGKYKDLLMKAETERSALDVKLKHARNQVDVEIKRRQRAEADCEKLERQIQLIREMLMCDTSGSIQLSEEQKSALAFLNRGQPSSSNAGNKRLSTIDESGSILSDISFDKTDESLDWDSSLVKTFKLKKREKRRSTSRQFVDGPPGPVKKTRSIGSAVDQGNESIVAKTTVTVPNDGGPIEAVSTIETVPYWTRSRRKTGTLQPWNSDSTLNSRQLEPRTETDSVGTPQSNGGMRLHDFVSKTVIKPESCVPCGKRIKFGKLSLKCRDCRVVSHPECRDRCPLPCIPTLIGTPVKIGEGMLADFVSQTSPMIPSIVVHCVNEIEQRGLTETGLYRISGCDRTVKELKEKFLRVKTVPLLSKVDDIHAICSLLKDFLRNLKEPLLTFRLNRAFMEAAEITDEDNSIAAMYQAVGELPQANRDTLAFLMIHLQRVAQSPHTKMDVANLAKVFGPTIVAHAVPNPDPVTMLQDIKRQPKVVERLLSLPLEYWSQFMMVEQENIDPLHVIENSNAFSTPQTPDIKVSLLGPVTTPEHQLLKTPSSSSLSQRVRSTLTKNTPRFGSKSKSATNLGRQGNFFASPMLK

| EC50 [1] | EC50 [2] | Compound | IC50 (Vero) | IC50 [3] | IC50 [4] | CC50 [5] | IC50 [6] |
| --- | --- | --- | --- | --- | --- | --- | --- |
| > 100 µM (inactive) | > 100 µM (inactive) | COc1ccccc1C1=NOC(C(=O)O)C1 (configuration not stated) | – | – | – | – | – |
| – | – | CCN(CC)CCCC(C)NC(=O)c1c(NC(=O)c2ccccc2)sc2c1CCCC2 (configuration not stated) | 21.4 µM (active) | 2.41 µM (active) | 3.36 µM (active) | 100 µM (active) | 144 µM (active) |
